Reference: publication PMC8624133, “10th Trends in Medical Mycology Held on 8 to 11 October 2021, Aberdeen, Scotland, Organized by the European Confederation of Medical Mycology (ECMM)” (Journal of Fungi, 2021)
Values after ≈ are worked out from the molar mass of the structure shown.

What was measured:
[1] = system: serious or life-threatening pulmonary aspergillosis; assay: Special Needs program: inhaled opelconazole in patients; format: in vivo, human
Description: Opelconazole has been supplied to patients with serious or life-threatening pulmonary aspergillosis who have not responded to available mold-active therapies under a Special Needs program regulated in the United Kingdom by the Medicines and Healthcare products Regulatory Agency. Successful outcomes in the first two patients who developed invasive pulmonary aspergillosis due to infections with A. fumigatus complex shortly after lung transplantation have been reported [Pagani 2020].

[2] = following inhaled delivery, ref Colley T et al., 2017, 2019; cited from earlier work
Description: A potent, effective inhaled anti-fungal agent with prolonged lung tissue residence and minimal systemic […] would be a valuable adjunct to current therapeutic options. To date, treatment using inhaled antifungal agents has been limited to repurposing available systemic medicines. Opelconazole is a novel triazole antifungal agent which was specifically designed for inhaled use and which is being developed as an inhaled treatment for pulmonary fungal disease.

Rhizopus oryzae = assay: Pandemic Box screening, EUCAST protocol; format: cell-based; conditions: for inhibition of R. oryzae growth: 5 µM
Description: (§1) Materials & Methods: An initial screening of the 400 compounds (5 µM) in this collection was performed with the Rhizopus oryzae, according to the EUCAST protocol. Compounds with activity against R. oryzae have also been tested against other mucormycosis etiological agents (Rhizopus microsporus e Rhizopus stolonifer) at concentrations ranging from 0.08 µM to 20 µM.

[3] = system: invasive and mucocutaneous fungal infections; assay: FURI and CARES open-label studies combined; format: in vivo, human; conditions: 84 patients
Description: Methods: FURI subjects were eligible for enrollment if they had proven or probable severe mucocutaneous candidiasis, invasive candidiasis, invasive aspergillosis, or other fungal diseases with evidence of treatment failure, intolerance, or toxicity related to a currently approved standard-of-care antifungal treatment or if they were unable to receive an approved oral antifungal option (e.g., susceptibility of the organism) and a continued IV antifungal therapy was clinically undesirable or unfeasible.

[4] = system: refractory fungal disease; assay: FURI Phase 3 open-label study, refractory subset; format: in vivo, human; conditions: 44 refractory patients
Description: Methods: FURI patients were eligible for enrollment if they have proven or probable, severe mucocutaneous candidiasis, invasive candidiasis or invasive aspergillosis and documented evidence of failure, intolerance, or toxicity related to a currently approved standard-of-care antifungal treatment or could not receive approved oral antifungal options (e.g., susceptibility of the organism) and continued IV antifungal therapy was clinically undesirable or unfeasible.

R. delemar 99–880 = assay: CLSI M38 in vitro susceptibility; format: cell-based, Rhizopus delemar
Description: (§2) Methods & Materials: In vitro susceptibility was conducted by the CLSI M38 method using a clinical isolate of Rhizopus delemar (a common cause of mucormycosis). ICR mice were immunosuppressed with cyclophosphamide and cortisone acetate on days −2, +3, and +8, relative to infection with intratracheally instilled R. delemar. […] Mice survival through Day +21 served as the primary endpoint.

R. delemar = assay: Murine mucormycosis, immunosuppressed mice infected intratracheally; format: in vivo, ICR mice; conditions: n = 20/arm
Description: as §2

Sporothrix brasiliensis = assay: Murine subcutaneous sporotrichosis model; format: in vivo, Balb/c mice
Description: Materials & Methods: 50 Balb/c mice, male, five to seven-week-old, were subcutaneous infected (left footpad) by a clinical isolate of S. brasiliensis (5.4 × 10^7 yeast/mice). Treatments started seven days post-inoculation (p.i) in all five groups (10 mice/each): G1 control group (placebo—receiving just the diluent of the drugs), G2 treatment group (itraconazole—ITZ 50 mg/kg); G3 to G5 DD treatment groups, 1, 5 and 10 mg/kg, respectively. All mice were treated once a day by oral gavage, for 30 consecutive days. Physical conditions and behavior were daily evaluated, and individual weight was weekly determined. At the 32nd day p.i. (48 h after the end of the treatments) animals were euthanasied and lung, liver, brain, kidneys, testicle and footpad were recovered aseptically and homogenized to mycological analysis. Fungal burden in each organ was measured by quantitatively counting colony-forming units (CFU). The determination of colony forming units (CFU)/gram of tissue (g) of S. brasiliensis in internal organs of groups were compared by non-parametric tests using Kruskal-Wallis combined with Wilcoxon. The weight loss assay was calculated considering the percentage of loss and/or increase between the value corresponding to the fungal inoculation day and to the end of the treatment.

C. albicans = format: cell-based, Candida albicans
C. parapsilosis = format: cell-based, Candida parapsilosis
C. tropicalis = format: cell-based, Candida tropicalis
C. glabrata = format: cell-based, Candida glabrata
Other species of Candida = format: cell-based, Candida spp.
C. krusei = format: cell-based, Candida krusei
[5] = system: Exophiala phaeomuriformis; assay: MIC, CLSI M27-A3; format: cell-based; conditions: read-out: MIC values
Description: Materials & Methods: The aviation kerosone samples came from an aviation company in Porto Alegre, state of Rio Grande do Sul, Brazil. The fungi isolation was carried out using the modified ASTM D6974-09 Standard. In this procedure, 500 mL kerosene samples were filtered, in triplicate, under aseptic conditions, under vacuum, using a 0.22 μm membrane (Millipore). After filtering, the membranes were deposited in potato dextrose agar culture medium. The plates were incubated in an oven at 30 °C for seven days. After this period, the colonies were isolated in new culture media for purification of the isolates. Molecular identification was performed through the sequencing of ITS DNA regions. The profile of sensitivity to clinical antifungals was assessed following protocols M27-A3 of the Clinical and Laboratory Standards Institute (CLSI).

[6] = system: clinical dermatophyte isolates; assay: Inhibition of dermatophyte biofilm formation; format: cell-based
Description: Materials and Methods: The study population consisted of 50 dermatophyte isolates that were collected from 2019 to 2020 from patients referred to the two mycology laboratory of Shiraz, Iran. The isolates were identified by ITS gene region sequencing. The suspension (equivalent to 0.5 McFarland) of the isolates was used to evaluate the ability of the isolates to form biofilms and also the effect of itraconazole, terbinafine and griseofulvin at concentrations of 2–32 μg/mL on inhibiting biofilm formation. Two optical microscope and a scanning electron microscope were used to study the microscopic structure of biofilms formed on the surface of 96-well plate wells.

McLDM strains = assay: EUCAST MIC, S. cerevisiae overexpressing M. circinelloides LDM, resistance phenotypes; format: cell-based, Saccharomyces cerevisiae
three Rhizopus species = assay: MIC and fungicidal activity; format: cell-based, Rhizopus oryzae, R. microsporus, R. stolonifer; conditions: for MIC: 0.08 µM to 20 µM tested
Description: as §1

Trichophyton spp. = assay: Agar-based screening method; format: cell-based; conditions: 0.5 McF, 5 days, 30 °C
Description: Inter-experimental variation was evaluated by testing 10 isolates on three different days. Single-centre validation: After determining the optimal conditions for the agar screening method, 112 molecularly identified Trichophyton spp. clinical isolates were tested.

[7] = system: A. fumigatus (resistant to posaconazole strain v79-63); assay: Neutropenic animal model of invasive pulmonary aspergillosis; format: in vivo, CD-1 mice
[8] = 11 treated patients and 1 on prophylaxis

Molecule: Cc1cc(N2CCN(c3ccc(C(=O)Nc4ccc(F)cc4)cc3)CC2)ccc1OC[C@@H]1CO[C@@](Cn2cncn2)(c2ccc(F)cc2F)C1 [opelconazole]
- drug-drug interactions [1, 8]: no drug-drug interactions reported
- tolerability [1, 8]: generally well tolerated
- Favorable responses at 3 months ([1]; patients who received opelconazole as treatment after no response to mold-active therapies, number of patients): 9 out of the 11
- local concentrations in the lung [2]: high
- systemic bioavailability [2]: minimal

Molecule: COc1cc(NS(=O)(=O)c2ccc(C)cc2)c2ncccc2c1 [MMV098836]
- inhibition of R. oryzae growth (Rhizopus oryzae): more than 50%

Molecule: CC(C)[C@@H](C)[C@@]1(C)CC[C@]2(C)[C@H]3CC[C@@H]4[C@@]5(COC[C@@]4(C)[C@@H](OC[C@](C)(N)C(C)(C)C)[C@H](n4ncnc4-c4ccncc4)C5)C3=CC[C@@]2(C)[C@@H]1C(=O)O [ibrexafungerp, Ibrexafungerp]
- progression of disease [3]: 5.9%
- stable disease [3]: 27.1%
- complete response, partial response and clinical improvement ([3]; oral, DRC-determined): 65.1%
- progression of disease [4]: 6.8%
- stable disease [4]: 22.7%
- complete response, partial response or clinical improvement ([4]; oral, DRC-determined): 59.1%

Molecule: c1cc(CN2CCCNCCNCCCNCC2)ccc1CN1CCCNCCNCCCNCC1 [MMV1580502]
- inhibition of R. oryzae growth (Rhizopus oryzae): more than 50%

Molecule: CC(C)[C@@H](C)[C@@]1(C)CC[C@]2(C)[C@H]3CC[C@@H]4[C@@]5(COC[C@@]4(C)[C@@H](OC[C@](C)(N)C(C)(C)C)[C@H](n4ncnc4-c4ccncc4)C5)C3=CC[C@@]2(C)[C@@H]1C(=O)O [IBREXA, Ibrexafungerp]
- minimum effective concentration (MEC) (R. delemar 99–880): > 8 µg/mL
- % Survival (R. delemar; through Day +21, placebo 0): 35%
- Median Survival (R. delemar; treatment from 24 h post infection, IBREXA 30 mg/kg po BID 7 d, LAMB 10 mg/kg iv 4 d, POSA 30 mg/kg po QD 7 d, placebo 8): 15 days

Molecule: c1ccc([Se][Se]c2ccccc2)cc1 [DD, Diphenyl diselenide]
- weight loss during treatment vs control group (Sporothrix brasiliensis; DD 5 mg/kg): statistically higher rate of weight loss
- fungal burden of internal organs vs placebo group (Sporothrix brasiliensis; oral gavage once a day, 30 days, ITZ 50 mg/kg, DD 1, 5 or 10 mg/kg): higher fungal burdens

Molecule: Oc1c(C(Nc2nc3ccccc3s2)c2ccc(OC(F)F)cc2)ccc2cccnc12 (stereo not shown) [MMV019724]
- inhibition of R. oryzae growth (Rhizopus oryzae): more than 50%

Molecule: Nc1nc(=O)[nH]cc1F [5-FC, 5-flucytosine]
- I (intermediate) isolates, n (%) (C. albicans): 1 (0.5%)
- R (resistant) isolates, n (%) (C. albicans): 2 (1%)
- S (sensitive) isolates, n (%) (C. albicans): 199 (98.5%)
- I (intermediate) isolates, n (%) (C. parapsilosis): 1 (0.6%)
- R (resistant) isolates, n (%) (C. parapsilosis): 2 (01.2%)
- S (sensitive) isolates, n (%) (C. parapsilosis): 170 (98.3%)
- I (intermediate) isolates, n (%) (C. tropicalis): 0 (0%)
- R (resistant) isolates, n (%) (C. tropicalis): 0 (0%)
- S (sensitive) isolates, n (%) (C. tropicalis): 57 (100%)
- I (intermediate) isolates, n (%) (C. glabrata): 0 (0%)
- R (resistant) isolates, n (%) (C. glabrata): 0 (0%)
- S (sensitive) isolates, n (%) (C. glabrata): 71 (100%)
- I (intermediate) isolates, n (%) (Other species of Candida): 0 (0%)
- R (resistant) isolates, n (%) (Other species of Candida): 0 (0%)
- S (sensitive) isolates, n (%) (Other species of Candida): 26 (100%)
- I (intermediate) isolates, n (%) (C. krusei): 3 (42.9%)
- R (resistant) isolates, n (%) (C. krusei): 3 (42.9%)
- S (sensitive) isolates, n (%) (C. krusei): 1 (14.3%)

Molecule: CC(=O)N1CCN(c2ccc(OCC3COC(Cn4ccnc4)(c4ccc(Cl)cc4Cl)O3)cc2)CC1 (stereo not shown) [ketoconazole]
- MIC [5]: 125 µg/mL (≈ 235 µM)

Molecule: COC1=CC(=O)C[C@@H](C)[C@]12Oc1c(Cl)c(OC)cc(OC)c1C2=O [griseofluvin, griseofulvin]
- IC50 ([6]; inhibition of biofilm formation, read-out: mean concentrations of IC50): 3.18 µg/mL (≈ 9.01 µM)
- samples with IC50 in concentration <2 ([6]; tested at 2–32 μg/mL): 66%

Molecule: Oc1cccc(C(Nc2nccs2)c2ccc3cccnc3c2O)c1 (stereo not shown) [MMV642550]
- inhibition of R. oryzae growth (Rhizopus oryzae): more than 50%

Molecule: CC(C)(C)C(O)C(Oc1ccc(Cl)cc1)n1cncn1 (stereo not shown) [TDM, triadimenol]
- resistance characteristics (McLDM strains): same resistance characteristics as FLC

Molecule: CCc1nc(N)nc(N)c1C#CC(C)c1cc(OC)cc(-c2ccncc2)c1 (stereo not shown) [MMV1580844]
- inhibition of R. oryzae growth (Rhizopus oryzae): more than 50%
- fungicidal activity (three Rhizopus species): did not show fungicidal activity
- MIC (three Rhizopus species): 0.08 µM (≈ 0.0299 µg/mL)

Molecule: CCCCC(CC)CNC(=N)NC(=N)NCCCCCCNC(=N)NC(=N)NCC(CC)CCCC (stereo not shown) [MMV396785, Alexidine]
- inhibition at 5 µM (Rhizopus oryzae; Rhizopus arrhizus, read-out: inhibition of R. oryzae growth): > 50%
- fungicidal activity (three Rhizopus species): 10 µM
- MIC (three Rhizopus species; Rhizopus): 0.63 to 1.25 µM (≈ 0.321 to 0.636 µg/mL)

Molecule: Cc1cccc(C)c1C(=O)Nc1nc(-c2ccccn2)cc2ccccc12 [MMV1581558]
- inhibition of R. oryzae growth (Rhizopus oryzae): more than 50%

Molecule: CCC(C)(C)c1ccc(CC(C)CN2C[C@@H](C)O[C@@H](C)C2)cc1 (stereo partly shown) [amorolfine]
- optimal agar concentration preventing growth of WT isolates (Trichophyton spp.): 0.5 mg/L

B1: IL-18: Mouse cytokine IL-18 (protein, UniProt P70380 36-192, looked up)
Interleukin-18: NFGRLHCTTAVIRNINDQVLFVDKRQPVFEDMTDIDQSASEPQTRLIIYMYKDSEVRGLAVTLSVKDSKMSTLSCKNKIISFEEMDPPENIDDIQSDLIFFQKRVPGHNKMEFESSLYEGHFLACQKEDDAFKLILKKKDENGDKSVMFTLTNLHQS
- log10CFU/lung ([7]; mean ± SEM, 3 animals treated for 3 d, placebo 6.1 ± 0.08): 4.82 ± 0.44 log10CFU/lung
- survival rates ([7]; survival recorded until 15 d, IL-18 10 ng/mouse intranasally daily -2 d till +7 d, posaconazole 16 mg/kg/day, groups of 10, control 20%): 56%
